Activity calls are given as the source filed them. The rule behind the calls is not given here.
How the values were obtained:
Mus musculus [1] = assay: Antinociceptive activity in sc dosed Swiss Webster mouse by tail-flick assay; format: functional
[2] = target: T1, Opioid receptors; mu/kappa/delta (Homo sapiens, UniProt P41145+P41143+P35372); assay: Displacement of [3H] naloxone from opioid receptor (unknown origin)
[3] = target: T1, Opioid receptors; mu/kappa/delta; assay: Displacement of [3H] naloxone from opioid receptor (unknown origin) in presence of 100 mM NaCl
Mus musculus [4] = assay: Antinociceptive activity in Swiss Webster mouse at 1.6 mg/kg, sc by tail-flick assay; format: functional, organism-based; parameters: dose 1.6 mg/kg
Mus musculus [5] = assay: Antinociceptive activity in Swiss Webster mouse at 5.12 mg/kg, sc by tail-flick assay; format: functional; conditions: route subcutaneous

Compound	ED50 (Mus musculus [1]) [mg/kg]	IC50 [2]	IC50 [3]	inhibition (Mus musculus [4])	inhibition in vivo at 5.12 mg/kg (Mus musculus [5]) [%]
CN1CC[C@]23c4c5ccc(O)c4O[C@H]2[C@@H](O)C=C[C@H]3[C@H]1C5.Cl [MORPHINE HYDROCHLORIDE]	0.33				
C=CCN1CC[C@]23c4c5ccc(O)c4O[C@H]2[C@H](N)CC[C@@]3(O)[C@H]1C5.Cl	4.9	8.6 ×10⁻⁸ M	5.3 ×10⁻⁸ M		
C=CCN1CC[C@]23c4c5ccc(O)c4O[C@H]2[C@@H](N)CC[C@@]3(O)[C@H]1C5.Cl		1.4 ×10⁻⁷ M	1.1 ×10⁻⁷ M	inactive	
Cl.N[C@@H]1CC[C@@]2(O)[C@H]3Cc4ccc(O)c5c4[C@@]2(CCN3CC2CC2)[C@H]1O5		9.1 ×10⁻¹⁰ M	7 ×10⁻¹⁰ M		27
Cl.N[C@H]1CC[C@@]2(O)[C@H]3Cc4ccc(O)c5c4[C@@]2(CCN3CC2CC2)[C@H]1O5		2.9 nM	9 nM		18
